From US9428508B2, “2,4-diamino-6,7-dihydro-5H-pyrrolo[2,3]pyrimidine derivatives as FAK/Pyk2 inhibitors” (Centaurus BioPharma Co., Ltd., priority 2011, dated 2016) come the findings set out here.

SMILES strings stand for the structures.

Assay [1] has as its target FAK (Homo sapiens (Human), UniProt Q05397). In words: Biochemical assay for FAK activity (LANCE TR-FRET, ULight-poly Glu,Ala,Tyr substrate). The conditions noted are these: GST-tagged FAK, 120 min reaction. A digest of the protocol: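 GST-tagged FAK (2.5 nM working stock) with ULight-poly Glu,Ala,Tyr (666 nM stock) and ATP (33.3 μM stock) in Tris pH 7.5/MgCl2/DTT/CHAPS buffer with BSA, 120 min; EDTA-quenched. Phosphorylation read by TR-FRET with Eu-anti-phosphotyrosine (PY20) antibody after 60 min. Compounds tested as 12-point 3-fold dilutions.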

Assay [2] concerns the target PYK2 (Homo sapiens (Human), UniProt Q14289). In words: Biochemical assay for PYK2 activity (LANCE TR-FRET, ULight-poly Glu,Ala,Tyr substrate). The conditions noted are these: GST-tagged PYK2, 40 min reaction. A digest of the protocol:
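GST-tagged human PYK2 (2 nM working stock) with ULight-poly Glu,Ala,Tyr (1:1:1) peptide (666 nM working stock) and ATP (46.6 μM working stock) in 40 mM Tris pH 7.5, MgCl2, 1 mM DTT, 1 mM CHAPS; 40 min reaction, EDTA quench. Phosphotyrosine read by LANCE Eu-anti-phosphotyrosine (PY20) TR-FRET after 60 min; 12-point 3-fold compound dilutions.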

PYK2, sequence (Q14289 whole entry): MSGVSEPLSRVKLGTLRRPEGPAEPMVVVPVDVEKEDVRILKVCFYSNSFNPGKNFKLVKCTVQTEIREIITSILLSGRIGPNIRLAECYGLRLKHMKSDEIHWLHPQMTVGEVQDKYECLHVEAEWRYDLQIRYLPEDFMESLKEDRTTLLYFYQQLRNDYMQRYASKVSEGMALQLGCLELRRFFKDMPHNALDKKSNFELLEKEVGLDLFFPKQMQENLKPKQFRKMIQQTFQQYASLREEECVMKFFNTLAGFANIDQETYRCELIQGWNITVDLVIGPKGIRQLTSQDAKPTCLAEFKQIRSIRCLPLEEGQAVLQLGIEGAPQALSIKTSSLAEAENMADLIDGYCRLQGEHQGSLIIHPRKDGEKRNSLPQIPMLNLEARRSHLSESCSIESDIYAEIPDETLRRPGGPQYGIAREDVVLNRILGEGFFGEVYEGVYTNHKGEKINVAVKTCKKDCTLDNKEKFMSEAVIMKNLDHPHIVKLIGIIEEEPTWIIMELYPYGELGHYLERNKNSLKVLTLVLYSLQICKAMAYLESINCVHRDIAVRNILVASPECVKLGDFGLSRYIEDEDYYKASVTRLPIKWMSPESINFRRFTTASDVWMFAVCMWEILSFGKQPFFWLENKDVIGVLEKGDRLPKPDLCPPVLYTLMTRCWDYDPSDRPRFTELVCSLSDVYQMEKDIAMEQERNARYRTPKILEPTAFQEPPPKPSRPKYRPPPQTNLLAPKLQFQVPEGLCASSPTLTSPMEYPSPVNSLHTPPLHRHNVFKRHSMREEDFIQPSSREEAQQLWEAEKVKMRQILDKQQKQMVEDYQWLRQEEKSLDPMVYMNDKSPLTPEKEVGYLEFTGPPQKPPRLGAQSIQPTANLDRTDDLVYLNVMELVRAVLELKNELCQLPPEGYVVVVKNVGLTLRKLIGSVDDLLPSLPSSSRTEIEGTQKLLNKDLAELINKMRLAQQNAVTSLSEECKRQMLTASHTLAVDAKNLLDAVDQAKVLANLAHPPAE
FAK, sequence (Q05397 whole entry): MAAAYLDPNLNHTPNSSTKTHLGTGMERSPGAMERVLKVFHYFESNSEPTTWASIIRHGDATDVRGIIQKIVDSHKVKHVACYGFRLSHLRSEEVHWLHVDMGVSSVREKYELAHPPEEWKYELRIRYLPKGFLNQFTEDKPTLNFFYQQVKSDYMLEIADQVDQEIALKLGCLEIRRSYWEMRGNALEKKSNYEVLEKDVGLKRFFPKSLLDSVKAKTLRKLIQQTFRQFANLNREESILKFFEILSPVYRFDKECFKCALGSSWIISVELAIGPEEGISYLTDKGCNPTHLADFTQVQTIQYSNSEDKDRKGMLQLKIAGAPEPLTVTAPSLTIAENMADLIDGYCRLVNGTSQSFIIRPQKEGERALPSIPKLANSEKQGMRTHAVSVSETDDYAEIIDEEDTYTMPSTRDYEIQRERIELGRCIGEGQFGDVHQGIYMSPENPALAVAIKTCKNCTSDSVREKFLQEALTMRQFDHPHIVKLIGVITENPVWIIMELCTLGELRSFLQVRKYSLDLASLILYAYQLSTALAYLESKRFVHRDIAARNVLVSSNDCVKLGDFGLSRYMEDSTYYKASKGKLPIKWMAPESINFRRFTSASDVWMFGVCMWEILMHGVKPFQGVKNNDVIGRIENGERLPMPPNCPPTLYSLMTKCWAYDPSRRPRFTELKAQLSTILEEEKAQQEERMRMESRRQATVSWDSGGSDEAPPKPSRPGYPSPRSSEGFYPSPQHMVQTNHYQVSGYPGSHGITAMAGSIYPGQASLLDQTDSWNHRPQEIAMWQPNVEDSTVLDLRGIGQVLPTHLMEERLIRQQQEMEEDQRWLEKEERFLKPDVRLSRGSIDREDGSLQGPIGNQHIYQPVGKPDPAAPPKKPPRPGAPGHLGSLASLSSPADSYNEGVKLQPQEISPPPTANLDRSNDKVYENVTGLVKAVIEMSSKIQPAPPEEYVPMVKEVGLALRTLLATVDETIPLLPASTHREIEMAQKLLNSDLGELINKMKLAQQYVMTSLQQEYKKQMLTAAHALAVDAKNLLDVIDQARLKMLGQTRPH

For the compound `COc1cc(N2CCOCC2)ccc1Nc1nc2c(c(Nc3ccccc3N(C)S(C)(=O)=O)n1)C(C)(C)CN2` [Example 122, N-(2-(2-(2-methoxy-4-morpholinophenylamino)-5,5-dimethyl-6,7-dihydro-5H-pyrrolo[2,3-d]pyrimidin-4-ylamino)phenyl)-N-methylmethanesulfonamide], the figures for the IC50 in assay [1] and in assay [2] were under 50 nM and under 100 nM, respectively.

As for `COc1cc(N2CCOCC2)ccc1Nc1nc2c(c(Nc3cccc(C)n3)n1)C(C)(C)CN2` [Example 123, N^2-(2-methoxy-4-morpholinophenyl)-5,5-dimethyl-N^4-(6-methylpyridin-2-yl)-6,7-dihydro-5H-pyrrolo[2,3-d]pyrimidine-2,4-diamine], the results for the half-maximal inhibitory concentration (IC50) in assay [1] and in assay [2] were under 200 nM and under 500 nM, respectively.

`COc1cc(N2CCOCC2)ccc1Nc1nc2c(c(Nc3ccccc3NC(C)=O)n1)C(C)(C)CN2` [Example 124, N-(2-(2-(2-methoxy-4-morpholinophenylamino)-5,5-dimethyl-6,7-dihydro-5H-pyrrolo[2,3-d]pyrimidin-4-ylamino)phenyl)acetamide]: the IC50 in assay [1] and in assay [2] was under 200 nM in each case.

Regarding `COc1cc(N2CCOCC2)ccc1Nc1nc2c(c(Nc3ccc(F)c(F)c3)n1)C(C)(C)CN2` [Example 125, N^4-(3,4-difluorophenyl)-N^2-(2-methoxy-4-morpholinophenyl)-5,5-dimethyl-6,7-dihydro-5H-pyrrolo[2,3-d]pyrimidine-2,4-diamine], the values for the half-maximal inhibitory concentration (IC50) in assay [1] and in assay [2] were under 1000 nM and over 1000 nM, respectively.

Take `CNC(=O)c1ccc2c(c1Nc1nc(Nc3ccc(N4CCOCC4)cc3OC)nc3c1C(C)(C)CN3)OCO2` [Example 126, 4-(2-(2-methoxy-4-morpholinophenylamino)-5,5-dimethyl-6,7-dihydro-5H-pyrrolo[2,3-d]pyrimidin-4-ylamino)-N-methylbenzo[d][1,3]dioxole-5-carboxamide]: the values for the half-maximal inhibitory concentration (IC50) in assay [1] and in assay [2] were under 1000 nM and over 1000 nM, respectively.

Turning to `COc1cc(N2CCOCC2)ccc1Nc1nc2c(c(NC3CCCCC3N(C)S(C)(=O)=O)n1)C(C)(C)CN2` (stereo not drawn) [Example 127, N-(2-(2-(2-methoxy-4-morpholinophenylamino)-5,5-dimethyl-6,7-dihydro-5H-pyrrolo[2,3-d]pyrimidin-4-ylamino)cyclohexyl)-N-methylmethanesulfonamide], the IC50 in assay [1] and in assay [2] was under 100 nM in each case.

On to `CNC(=O)c1ccccc1Nc1nc(Nc2cccc3c2OCCO3)nc2c1C(C)(C)CN2` [Example 128, 2-(2-(2,3-dihydrobenzo[b][1,4]dioxin-5-ylamino)-5,5-dimethyl-6,7-dihydro-5H-pyrrolo[2,3-d]pyrimidin-4-ylamino)-N-methylbenzamide], for which the IC50 in assay [1] and in assay [2] was under 20 nM in each case.

As for `CNC(=O)c1ccccc1Nc1nc(Nc2ccc(N3CCOCC3)c3c2OCCO3)nc2c1C(C)(C)CN2` [Example 129, 2-(5,5-dimethyl-2-(8-morpholino-2,3-dihydrobenzo[b][1,4]dioxin-5-ylamino)-6,7-dihydro-5H-pyrrolo[2,3-d]pyrimidin-4-ylamino)-N-methylbenzamide], the IC50 is under 50 nM in assay [1] and under 100 nM in assay [2].

With `CNC(=O)c1ccccc1Nc1nc(Nc2cc(OC)c(OC)c(OC)c2)nc2c1C(C)(C)CN2` [Example 130, 2-(5,5-dimethyl-2-(3,4,5-trimethoxyphenylamino)-6,7-dihydro-5H-pyrrolo[2,3-d]pyrimidin-4-ylamino)-N-methylbenzamide], the IC50 in assay [1] and in assay [2] was under 200 nM in each case.

In the case of `CNC(=O)c1ccccc1Nc1nc(Nc2cccc3ccoc23)nc2c1C(C)(C)CN2` [Example 131, 2-(2-(benzofuran-7-ylamino)-5,5-dimethyl-6,7-dihydro-5H-pyrrolo[2,3-d]pyrimidin-4-ylamino)-N-methylbenzamide], the half-maximal inhibitory concentration (IC50) in assay [1] and in assay [2] was under 20 nM each time.

Regarding `CNC(=O)c1ccccc1Nc1nc(Nc2cc(C)nn2C)nc2c1C(C)(C)CN2` [Example 132, 2-(2-(1,3-dimethyl-1H-pyrazol-5-ylamino)-5,5-dimethyl-6,7-dihydro-5H-pyrrolo[2,3-d]pyrimidin-4-ylamino)-N-methylbenzamide], the IC50 in assay [1] was under 20 nM; in assay [2], under 50 nM.

Regarding `CCN1C(=O)CCCc2c1ccc(Nc1nc3c(c(Nc4ccccc4C(=O)NC)n1)C(C)(C)CN3)c2OC` [Example 133, 2-(2-(1-ethyl-6-methoxy-2-oxo-2,3,4,5-tetrahydro-1H-benzo[b]azepin-7-ylamino)-5,5-dimethyl-6,7-dihydro-5H-pyrrolo[2,3-d]pyrimidin-4-ylamino)-N-methylbenzamide], the IC50 in assay [1] is under 20 nM; in assay [2] it was under 50 nM.

Turning to `CNC(=O)c1ccccc1Nc1nc(Nc2ccc3c(ccn3CCCN3CCOCC3)c2)nc2c1C(C)(C)CN2` [Example 134, 2-(5,5-dimethyl-2-(1-(3-morpholinopropyl)-1H-indol-5-ylamino)-6,7-dihydro-5H-pyrrolo[2,3-d]pyrimidin-4-ylamino)-N-methylbenzamide], the half-maximal inhibitory concentration (IC50) in assay [1] and in assay [2] was under 200 nM each time.

Turning to `CNS(=O)(=O)c1ccccc1Nc1nc(Nc2ccc(N3CCOCC3)cc2OC)nc2c1C1(CC1)CN2` [Example 135, 2-(2′-(2-methoxy-4-morpholinophenylamino)-6′,7′-dihydrospiro[cyclopropane-1,5′-pyrrolo[2,3-d]pyrimidine]-4′-ylamino)-N-methylbenzenesulfonamide], the IC50 is under 50 nM in assay [1] and under 20 nM in assay [2].

On to `COc1cc(N2CCOCC2)ccc1Nc1nc2c(c(Nc3ccccc3S(=O)(=O)NC(C)(C)C)n1)C1(CC1)CN2` [Example 136, N-tert-butyl-2-(2′-(2-methoxy-4-morpholinophenylamino)-6′,7′-dihydrospiro[cyclopropane-1,5′-pyrrolo[2,3-d]pyrimidine]-4′-ylamino)benzenesulfonamide], for which the IC50 in assay [1] and in assay [2] was under 20 nM in each case.

With `COc1cc(N2CCOCC2)ccc1Nc1nc2c(c(Nc3ccccc3S(=O)(=O)NCC(C)C)n1)C1(CC1)CN2` [Example 137, N-isobutyl-2-(2′-(2-methoxy-4-morpholinophenylamino)-6′,7′-dihydrospiro[cyclopropane-1,5′-pyrrolo[2,3-d]pyrimidine]-4′-ylamino)benzenesulfonamide], the concentration for half-maximal inhibition (IC50) in assay [1] and in assay [2] was under 20 nM in each case.

`COc1cc(N2CCOCC2)ccc1Nc1nc2c(c(Nc3ccccc3S(=O)(=O)NC(C)C)n1)C1(CC1)CN2` [Example 138, N-isopropyl-2-(2′-(2-methoxy-4-morpholinophenylamino)-6′,7′-dihydrospiro[cyclopropane-1,5′-pyrrolo[2,3-d]pyrimidine]-4′-ylamino)benzenesulfonamide]: the IC50 in assay [1] and in assay [2] was under 20 nM in each case.

With `CCNS(=O)(=O)c1ccccc1Nc1nc(Nc2ccc(N3CCOCC3)cc2OC)nc2c1C1(CC1)CN2` [Example 139, N-ethyl-2-(2′-(2-methoxy-4-morpholinophenylamino)-6′,7′-dihydrospiro[cyclopropane-1,5′-pyrrolo[2,3-d]pyrimidine]-4′-ylamino)benzenesulfonamide], the IC50 in assay [1] and in assay [2] was under 20 nM each time.
